In PubChem BioAssay AID2745 (NMMLSC, 2010):
Activity calls are given as the source filed them. The rule behind the calls is not given here.

Columns and labels:
[1] = system: S. cerevisiae LAP4-GFP reporter, flow cytometry fluorescence; assay: LAP4-GFP modulation potency in yeast, dose response, cell-based, MLPCN hits, flow cytometry (AID 2745);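 note: yeast exposed to compound for three hours at 30 degrees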
[2] = as above; details: S. cerevisiae LAP4-GFP reporter, flow cytometry fluorescence; at 33 µM (top of the series)

Row | Compound | EC50 [1] | LAP4-GFP fluorescence (kMESF) [2]
1 | O=[N+]([O-])c1ccc(N=Nc2c(Cl)cc(O)cc2Cl)cc1 | 4.97 µM | 
2 | Cc1ccc(/C=C2/C(=O)ON=C2c2ccccc2)o1 | 3.48 µM | 
3 | O=C1C=CC(=O)N1c1ccc(N2CCCCC2)cc1 | 1.24 µM | 
4 | Cc1ccc(C2=NOC(=O)/C2=C\c2ccc(C)o2)cc1 | 4.47 µM | 
5 | CS(=O)(=O)c1nc(-c2cccs2)cc(C(F)(F)F)n1 | 30.5 µM | 
6 | O=C(OCn1ncc(Br)c(Br)c1=O)c1c(F)cccc1F | 16.9 µM | 
7 | CCN1/C(=C/C(C)=C/c2sc3ccccc3[n+]2CC)Sc2ccccc21 | 4.21 µM | 
8 | O=C(Oc1c(Cl)cc(Cl)c2cccnc12)c1ccco1 | 2.46 µM | 
9 | Cc1ccc(C(=O)Oc2oc(-c3ccco3)nc2C=Nc2ccc(Cl)cc2)cc1 | 3.6 µM | 
10 | Cc1ccc(NN2C(=O)C=C(c3ccc(Cl)cc3)C2=O)cc1 | 0.691 µM | 
11 | O=C1C2C3C=CC(CO)(O3)C2C(=O)N1c1ccc(-c2ccccc2)cc1 (stereo not given) | 1.53 µM | 
12 | O=C(C#Cc1ccccc1)c1cccc([N+](=O)[O-])c1 | 7.75 µM | 
13 | Nc1ccccc1C#CC(=O)c1ccccc1 | 8.31 µM | 
14 | O=C(Nc1ccccc1)c1nnsc1S(=O)(=O)c1ccc(Cl)cc1 | 0.564 µM | 
15 | Cc1cc(C2CCCCC2)n(O)c(=O)c1 | 5.33 µM | 
16 | O=C(Nc1ccc(Cl)cc1Cl)c1cccc(N2C(=O)C=CC2=O)c1 | 3.92 µM | 
17 | CCc1cc(C(=O)Nc2nc(-c3ccccn3)cs2)sc1C | 5.96 µM | 
18 | COc1ccc(/C=C2\C(=O)ON=C2c2ccccc2)cc1 | 6.86 µM | 
19 | COc1ccc(C2=CC(=O)N(Nc3ccccc3)C2=O)cc1 | 9.78 µM | 
20 | Cc1ccc(S(=O)(=O)c2ncccc2[N+](=O)[O-])cc1 | 14.6 µM | 
21 | N=C1S/C(=C\c2ccco2)C(=O)N1c1nccs1 | 4 µM | 
22 | Oc1ccc2ccccc2c1N=Nc1nccs1 | 8.45 µM | 

Row | Compound | EC50 [1] | LAP4-GFP fluorescence (kMESF) [2]
23 | Cc1cc(S(=O)(=O)ON2C(=O)c3ccccc3C2=O)ccc1F | 4.21 µM | 
24 | Cc1[nH]c(-c2ccccn2)nc(=S)c1Cl | 4.58 µM | 
25 | CCOC(=O)CSC1=NC(=O)/C(=C\c2ccc(Cl)cc2)S1 | 27 µM | 
26 | Cn1c(=O)c(C(=O)NNC(=O)c2ccc(Br)cc2)c(O)c2ccccc21 | 0.762 µM | 
27 | O=C1NC(=O)N(Cc2ccc(F)cc2)C(=O)/C1=C/c1cccs1 | 3.41 µM | 
28 | CCn1c(=O)c(C(=O)Nc2nc3ccccc3[nH]2)c(O)c2ccccc21 | 0.45 µM | 
29 | O=C(Nc1nc(-c2ccccn2)cs1)c1cc2ccccc2o1 | 4.09 µM | 
30 | O=[N+]([O-])c1cc(O)c2ncccc2c1 | 9.88 µM | 
31 | O=C1NC(=S)NC(=O)C1=Cc1ccc2c(c1)CCN2CCCCl | 4.06 µM | 
32 | O=[N+]([O-])c1ccc(S(=O)(=O)c2cccc(C(F)(F)F)c2)nc1 | 21.5 µM | 
33 | O=C(COc1ccccc1)NNC(=S)NC(=O)c1ccc(Cl)cc1Cl | 17.8 µM | 
34 | CC(C)(C)C(=O)C(Cl)C(=O)Nc1ccccc1 (stereo not given) | 14.6 µM | 
35 | Cc1ccc(C(=O)O)cc1N=Cc1cc(Br)cc(Br)c1O | 4.17 µM | 
36 | O=C1NC(=O)C(=Cc2ccc(-c3ccc(Cl)cc3)o2)C(=O)N1 | 1.41 µM | 
37 | O=C(NC(=S)NNC(=O)c1cnccn1)c1ccc(F)cc1 | 7.94 µM | 
38 | Cc1cc(C(=O)COC(=O)c2ccc[nH]c2=O)c(C)n1-c1ccccc1F | 0.863 µM | 
39 | Cn1ncc(S(=O)(=O)Cc2ccccc2)c(Cl)c1=O | 4.01 µM | 
40 | O=C(OCn1ncc(Br)c(Br)c1=O)c1ccc(F)cc1 | 19.1 µM | 
41 | O=C(NC(=S)NNC(=O)c1cnccn1)c1ccc(Cl)cc1 | 1.75 µM | 
42 | O=C(COc1ccc(F)cc1Cl)Nc1nc(-c2ccccn2)cs1 | 2.98 µM | 
43 | O=C1ON=C(c2ccccc2)/C1=C/c1ccc(-c2ccccc2[N+](=O)[O-])o1 | 5 µM | 
44 | COc1ccc(N2C(=O)C(Cl)=C(Oc3cccc(OC)c3)C2=O)cc1 | 4.89 µM | 

Row | Compound | EC50 [1] | LAP4-GFP fluorescence (kMESF) [2]
45 | N/C(Cc1ccc(Cl)cc1Cl)=N\OC(=O)c1cccs1 | 4.48 µM | 
46 | Nc1ccc(Br)c2c1C(=O)c1ccccc1C2=O | 1.18 µM | 
47 | CC(Oc1ccc(Cl)cc1)C(=O)NNC(=S)NC(=O)c1ccco1 (stereo not given) | 7.2 µM | 
48 | Oc1c(I)cc(Cl)c2cccnc12 | 0.986 µM | 
49 | ClC(Cl)(c1nnnn1-c1ccccc1)c1nnnn1-c1ccccc1 | 3.8 µM | 
50 | N/C(Cc1ccc(Cl)cc1)=N\OC(=O)c1ccccc1 | 4.4 µM | 
51 | CCOC(=O)/C(=C\c1cn(C)c2ccccc12)[N+](=O)[O-] | 2.24 µM | 
52 | CC(=O)c1ccc(N2CCN(C(=O)c3ccc(Br)cc3)CC2)c(F)c1 | 9.91 µM | 
53 | O=C(O)/C=C/C(=O)c1ccc2c(c1)CCc1ccccc1-2 | 1.2 µM | 
54 | O=C1ON=C(c2ccccc2)/C1=C\c1ccco1 | 3.67 µM | 
55 | O=[N+]([O-])c1cc(Cl)cc(/C=N\Nc2ccccn2)c1O | 3.33 µM | 
56 | CC(=O)SC(C[N+](=O)[O-])c1cn(C(C)=O)c2ccccc12 (stereo not given) | 10.7 µM | 
57 | CN1CCN(C(c2ccc(C(F)(F)F)cc2)c2ccc3cccnc3c2O)CC1 (stereo not given) | 6.72 µM | 
58 | O=[N+]([O-])c1ccc(O)c(/C=N/Nc2ccccn2)c1 | 12.5 µM | 
59 | COc1cccc(/C=C/C(=O)c2c(O)cc(C)oc2=O)c1O | 4.42 µM | 
60 | COc1ccc(N2CCN(C(=O)c3ccc(Br)cc3)CC2)c([N+](=O)[O-])c1 | 11.4 µM | 
61 | COc1ccc(C(=O)/C=C2/C(=O)Nc3ccccc32)cc1 | 3.38 µM | 
62 | O=C1c2ccccc2C(=O)C2OC12 (stereo not given) | 19.6 µM | 
63 | COc1ccc([N+](=O)[O-])c(S(=O)(=O)c2ccc(Cl)cc2)n1 | 1.99 µM | 
64 | Oc1ccc(Br)cc1/C=N/Nc1ccccn1 | 22.7 µM | 
65 | O=c1cc(CSc2ccc(Cl)cc2)nc(-c2ccccn2)[nH]1 | 6.28 µM | 
66 | COc1cc(N2C(=O)C=CC2=O)c(OC)cc1Cl | 1.44 µM | 

Row | Compound | EC50 [1] | LAP4-GFP fluorescence (kMESF) [2]
67 | O=C1ON=C(c2ccccc2)/C1=C/c1ccco1 | 4.26 µM | 
68 | Oc1c(I)cc(I)c2cccnc12 | 0.7 µM | 
69 | O=C(Nc1nc(-c2ccccn2)cs1)C1COc2ccccc2O1 (stereo not given) | 3.9 µM | 
70 | COc1ccc(C(c2c(C)[nH]n(C(N)=S)c2=O)C(C#N)C#N)cc1 (stereo not given) | 2.08 µM | 
71 | O=C(Nc1nnc(-c2ccc(Cl)cc2)o1)c1ccccc1Br | 4.31 µM | 
72 | Cc1ccc(O)c(N=Nc2nccs2)c1 | 4.52 µM | 
73 | Cc1ccc(NC(=O)CCc2ccccc2)cc1S(=O)(=O)N1CCOCC1 |  | 3.23 kMESF (inactive)
74 | CCc1ccc(/C=C/C(=O)c2cc(Br)ccc(=O)c2O)cc1 |  | 9 kMESF (inactive)
75 | COc1cc(/C=C2/C(=O)c3cccc([N+](=O)[O-])c3C2=O)c(Br)cc1O |  | 3.64 kMESF (inactive)
76 | O=C1C(Cl)=C(N2CCN(Cc3ccccc3)CC2)C(=O)N1c1ccccc1 |  | 4.11 kMESF (inactive)
77 | O=[N+]([O-])c1ccc(-c2cn3nc(-c4ccccc4)c(-c4ccccc4)nc3n2)cc1 |  | 9.37 kMESF (inactive)
78 | N#Cc1ccc(N=c2ssnc2Cl)cc1 |  | 9.41 kMESF (inactive)
79 | O=c1cc(-c2ccccc2)cc(-c2ccccc2)n1O |  | 5.91 kMESF (inactive)
80 | CC[C@@]1(c2ccccc2OC)ON(c2ccccc2C(F)(F)F)C1=O |  | 6.51 kMESF (inactive)
81 | COCCN1C(=O)/C(=C/c2ccc(N3CCCC3)cc2C)SC1=S |  | 7.02 kMESF (inactive)
82 | O=C(Nc1ccc(NC(=O)c2cc3ccccc3o2)cc1)c1ccco1 |  | 3.31 kMESF (inactive)
83 | O=C1c2ccccc2C(=O)N1OS(=O)(=O)c1ccc(F)cc1 |  | 9.97 kMESF (inactive)
84 | CN(C)NC(=S)Nc1ccc(S(=O)(=O)N2CCCCC2)cc1 |  | 3.13 kMESF (inactive)
85 | Oc1cc(-c2ccc(N3CCCCC3)nc2)cc2cccnc12 |  | 4.15 kMESF (inactive)
86 | CCCCNc1c2c3c(cccc3n(C)c1=O)C(=O)c1ccccc1-2 |  | 11.2 kMESF (inactive)
87 | O=C1c2cccc3c([N+](=O)[O-])ccc(c23)C(=O)N1CCc1ccccn1 |  | 7.15 kMESF (inactive)
88 | Cc1ccc(S(=O)(=O)N2CCCC2C(=O)NCc2ccncc2)cc1 (stereo not given) |  | 4.58 kMESF (inactive)

Row | Compound | EC50 [1] | LAP4-GFP fluorescence (kMESF) [2]
89 | CCN(CC)c1ccc2cc(-c3nc4ccccc4[nH]3)c(=O)oc2c1 |  | 3.03 kMESF (inactive)
90 | Cc1cc(=O)oc2cc(Oc3ccc([N+](=O)[O-])cc3C(F)(F)F)ccc12 |  | 3.64 kMESF (inactive)
91 | N/C(=N\OC(=O)c1cc(Br)ccc1Cl)c1ccccn1 |  | 12.2 kMESF (inactive)
92 | Cc1c(C)c2ccc(Oc3ccc([N+](=O)[O-])cc3C(F)(F)F)c(C)c2oc1=O |  | 3.47 kMESF (inactive)
93 | Cc1cc(NC(=O)c2cccnc2Cl)ccc1NC(=O)c1cc2ccccc2o1 |  | 3.41 kMESF (inactive)
94 | O=C1C(Cl)=C(NCCc2ccccc2)C(=O)N1CCc1ccccc1 |  | 5.91 kMESF (inactive)
95 | CSc1nnc2c3cc(F)ccc3n(C)c2n1 |  | 2.93 kMESF (inactive)
96 | O=C(NCc1ccc2c(c1)OCO2)c1nc(S(=O)(=O)Cc2ccccc2)ncc1Cl |  | 4.7 kMESF (inactive)
97 | CCC(=O)Oc1oc(-c2ccccc2)nc1C=Nc1ccccc1OC |  | 4.64 kMESF (inactive)
98 | COc1ccc(NC(=O)/C(C#N)=C/c2ncc([N+](=O)[O-])n2C)c(OC)c1 |  | 9.76 kMESF (inactive)
99 | CC(=O)Oc1ccc(/C=c2\sc3ncnn3c2=O)cc1 |  | 10.1 kMESF (inactive)
100 | COc1ccc(N2C(=O)CC(Sc3ncn[nH]3)C2=O)c(OC)c1 (stereo not given) |  | 13.7 kMESF (inactive)
101 | Cc1ccc(S(=O)(=O)/N=C(\Sc2ccccc2)c2ccccc2)cc1 |  | 6.11 kMESF (inactive)
102 | CCC1(c2ccccc2)ON(c2c(Br)cccc2Br)C1=O (stereo not given) |  | 7.52 kMESF (inactive)
103 | O=C(c1ccccn1)c1conc1C(=O)c1ccc(Br)cc1 |  | 9.07 kMESF (inactive)
104 | COc1ccccc1[C@]1(C)ON(c2ccccc2C(F)(F)F)C1=O |  | 7.79 kMESF (inactive)
105 | O=C(O)c1cc[c]([Hg][Cl])cc1 |  | 8.49 kMESF (inactive)
106 | Cc1ccc(NC(=O)c2nc(S(=O)(=O)Cc3ccccc3)ncc2Cl)cc1 |  | 9.01 kMESF (inactive)
107 | Cc1ccc(/C=C2\SC(=S)N(CC3CCCO3)C2=O)o1 (stereo not given) |  | 4.89 kMESF (inactive)
108 | N/C(=N\OC(=O)c1cccc(Br)c1)c1ccccc1 |  | 4.51 kMESF (inactive)
109 | COc1cc(CNC(=O)CCCCCCC(C)C)ccc1O |  | 3.74 kMESF (inactive)
110 | COc1ccc2c(c1)c(/C=C/c1cc[n+](C)cc1)cn2C |  | 4.11 kMESF (inactive)
